Ki data for twelve compounds are collected here from publication PMC6913647, “Novel sulphonamides incorporating triazene moieties show powerful carbonic anhydrase I and II inhibitory properties” (Journal of Enzyme Inhibition and Medicinal Chemistry, 2019).

One test deals with T1, hCA II (Homo sapiens, UniProt P00918).
T1 construct: gene CA2; native enzyme purified from human blood; cytosolic isoform
Nature of the test: esterase inhibition assay. In kind it is biochemical. The source says:
esterase inhibition assay on hCA II

For a further test, the target named is T2, hCA I (Homo sapiens, UniProt P00915).
T2 construct: gene CA1; native enzyme purified from human blood; cytosolic isoform
Nature of the test: esterase inhibition assay. In kind it is biochemical. An excerpt: esterase inhibition assay on hCA I

The mark [1] stands for this setting: substrate 4-nitrophenyl acetate.

Like-named read-outs stand apart in the source and are kept apart here.

T2 sequence (P00915 2-261): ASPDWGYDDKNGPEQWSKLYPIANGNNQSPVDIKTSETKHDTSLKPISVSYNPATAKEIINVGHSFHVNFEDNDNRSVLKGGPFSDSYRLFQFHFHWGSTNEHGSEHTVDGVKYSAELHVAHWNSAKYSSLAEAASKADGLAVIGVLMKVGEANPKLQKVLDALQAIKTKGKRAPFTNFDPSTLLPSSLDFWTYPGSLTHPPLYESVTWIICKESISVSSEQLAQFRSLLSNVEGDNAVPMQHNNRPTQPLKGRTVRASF

One may read the Ki as a dissociation constant, usually derived from enzyme kinetics or from competition with a known ligand. Lower therefore signals higher affinity. For the compound `NS(=O)(=O)c1cccc(N=NNc2ccccc2)c1` [compound 1, 3–(3-Pheynltriaz-1-en-1-yl)benzenesulfonamide], the Ki at hCA II came to 18 ± 5 nM; at hCA I, 28 ± 6 nM.
With `NS(=O)(=O)c1cccc(N=NNc2ccc(F)cc2)c1` [compound 2, 3-(3-(4-Fluorophenyl)triaz-1-en-1-yl) benzenesulfonamide], the Ki stood at 21 ± 9 nM at hCA II and 21 ± 4 nM on hCA I (setting [1]).
As for `NS(=O)(=O)c1cccc(N=NNc2ccc(Br)cc2)c1` [compound 3, 3-(3-(4-Bromophenyl)triaz-1-en-1-yl) benzenesulfonamide], the Ki at hCA II amounted to 19 ± 4 nM; on hCA I, 57 ± 3 nM.
In the case of `CCOc1ccc(NN=Nc2cccc(S(N)(=O)=O)c2)cc1` [compound 4, 3-(3-(4-Ethoxyphenyl)triaz-1-en-1-yl) benzenesulfonamide], the Ki on hCA II (setting [1]) stood at 16 ± 6 nM; at hCA I, 38 ± 4 nM.
Regarding `COc1ccc(/N=N/Nc2cccc(S(N)(=O)=O)c2)cc1` [compound 5, 3-(3-(4-Methoxyphenyl)triaz-1-en-1-yl) benzenesulfonamide], the Ki at hCA II was 21 ± 4 nM; on hCA I, 42 ± 8 nM.
On to `CCc1ccc(NN=Nc2cccc(S(N)(=O)=O)c2)cc1` [compound 6, 3-(3-(4-Ethylphenyl)triaz-1-en-1-yl) benzenesulfonamide], for which the Ki on hCA II was 16 ± 2 nM; on hCA I it was 49 ± 2 nM.
`NS(=O)(=O)c1cccc(N=NNc2cccc(Cl)c2)c1` [compound 7, 3-(3-(3-Chlorophenyl)triaz-1-en-1-yl) benzenesulfonamide]: the Ki on hCA II was found to be 22 ± 6 nM; at hCA I it was 53 ± 15 nM.
As to `NS(=O)(=O)c1cccc(N=NNc2cccc(F)c2)c1` [compound 8, 3-(3-(3-Fluorophenyl)triaz-1-en-1-yl) benzenesulfonamide], the values for the Ki on hCA II and on hCA I were 28 ± 6 nM and 36 ± 3 nM, respectively.
Take `COc1cccc(NN=Nc2cccc(S(N)(=O)=O)c2)c1` [compound 9, 3-(3-(3-Methoxyphenyl)triaz-1-en-1-yl) benzenesulfonamide]: the Ki on hCA II amounted to 23 ± 2 nM; on hCA I, 33 ± 5 nM.
As to `NS(=O)(=O)c1cccc(N=NNc2ccccc2Cl)c1` [compound 10, 3-(3-(2-Chlorophenyl)triaz-1-en-1-yl) benzenesulfonamide], the Ki on hCA II was 20 ± 5 nM; at hCA I, 46 ± 12 nM.
On to `NS(=O)(=O)c1cccc(N=NNc2ccccc2F)c1` [compound 11, 3-(3-(2-Fluorophenyl)triaz-1-en-1-yl) benzenesulfonamide], for which the Ki on hCA II turned out to be 33 ± 9 nM; at hCA I, 72 ± 2 nM.
As to `NS(=O)(=O)c1cccc(N=NNc2ccccc2Br)c1` [compound 12, 3-(3-(2-Bromophenyl)triaz-1-en-1-yl) benzenesulfonamide], the values for the Ki at hCA II and at hCA I were 40 ± 2 nM and 61 ± 1 nM, respectively.
